Data as given in publication PMC3503826, “Limits of Ligand Selectivity from Docking to Models: In Silico Screening for A1 Adenosine Receptor Antagonists” (PLoS ONE, 2012).

How the values were obtained:
human A1AR = target: T1, human A1AR (Homo sapiens, UniProt P30542); assay: Radioligand binding ([3H]DPCPX), membranes of CHO cells expressing hA1AR; conditions: for inhibition at 10 µM: percent inhibition at 10 µM compound, [3H]DPCPX, read-out: A1 % Inhibition; for inhibition at 10 µM / Ki: hA1AR, CHO cell membranes; for Ki: [3H]DPCPX 0.5 nM, mean ± standard error, read-out: A1 Ki
T1 construct: expressed in transfected cells
T1 sequence (P30542 1-326): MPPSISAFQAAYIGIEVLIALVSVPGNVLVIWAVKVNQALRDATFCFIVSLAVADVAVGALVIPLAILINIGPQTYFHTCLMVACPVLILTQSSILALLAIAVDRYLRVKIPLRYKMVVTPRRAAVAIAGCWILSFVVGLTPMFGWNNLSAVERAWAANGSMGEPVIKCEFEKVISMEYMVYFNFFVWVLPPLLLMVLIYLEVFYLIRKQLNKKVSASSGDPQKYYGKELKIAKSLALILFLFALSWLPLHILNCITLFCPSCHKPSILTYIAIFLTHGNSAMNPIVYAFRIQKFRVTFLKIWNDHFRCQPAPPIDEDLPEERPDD
Description: (§1) Binding affinity for three human AR (hAR) subtypes was measured using standard radioligand assays and membrane preparations from Chinese hamster ovary (CHO) cells (A1 and A3) or human embryonic kidney (HEK) 293 cells (A2A) stably expressing a hAR subtype (Table 1).
(§2) Receptor binding assays: [^3H]8-Cyclopentyl-1,3-dipropylxanthine ([^3H]DPCPX, 120 Ci/mmol) and [^125I]N ^6-(4-amino-3-iodobenzyl)adenosine-5'-N-methyluronamide ([^125I]I-AB-MECA, 2200 Ci/mmol) were purchased from Perkin–Elmer Life and Analytical Science (Boston, MA). [^3H](2-[p-(2-Carboxyethyl)phenyl-ethylamino]-5'-N-ethylcarboxamido-adenosine) ([^3H]CGS21680, 39 Ci/mmol) was purchased from American Radiolabeled Chemicals, Inc. (St. Louis, MO). Other pharmacological reagents were purchased from Tocris-R&D Systems, Inc. (Minneapolis, MN). Test compounds were prepared as 5 mM stock solutions in DMSO and stored frozen.
(§3) Cell Culture and Membrane Preparation: CHO cells stably expressing the recombinant hA1 and hA3ARs, and HEK-293 cells stably expressing the hA2AAR were cultured in Dulbecco’s modified Eagle medium (DMEM) and F12 (1∶1) supplemented with 10% fetal bovine serum, 100 units/mL penicillin, 100 µg/mL streptomycin, and 2 µmol/mL glutamine. In addition, 800 µg/mL geneticin was added to the A2A media, while 500 µg/mL hygromycin was added to the A1 and A3 media. After harvesting, cells were homogenized and suspended in PBS. Cells were then centrifuged at 240 g for 5 min, and the pellet was resuspended in 50 mM Tris-HCl buffer (pH 7.5) containing 10 mM MgCl2. The suspension was homogenized and was then ultra-centrifuged at 14,330 g for 30 min at 4°C. The resultant pellets were resuspended in Tris buffer and incubated with adenosine deaminase (3 units/mL) for 30 min at 37°C. The suspension was homogenized with an electric homogenizer for 10 sec, pipetted into 1 mL vials and then stored at -80°C until the binding experiments. The protein concentration was measured using the BCA Protein Assay Kit from Pierce Biotechnology, Inc. (Rockford, IL).
(§4) Binding assays: Standard radioligand binding assays for A1, A2A, and A3ARs were used [37]–[39]. Into each tube in the binding assay was added 50 µL of increasing concentrations of the test ligand in Tris-HCl buffer (50 mM, pH 7.5) containing 10 mM MgCl2, 50 µL of the appropriate agonist radioligand, and finally 100 µL of membrane suspension. For the A1AR (22 µg of protein/tube) the radioligand used was [^3H]DPCPX (final concentration of 0.5 nM). For the A2AAR (20 µg/tube) the radioligand used was [^3H]CGS21680 (final concentration 10 nM). For the A3AR (21 µg/tube) the radioligand used was [^125I]I-AB-MECA (final concentration 0.2 nM). Nonspecific binding was determined using a final concentration of 10 µM NECA diluted with the buffer. The mixtures were incubated at 25°C for 60 min in a shaking water bath. Binding reactions were terminated by filtration through Brandel GF/B filters under a reduced pressure using a M-24 cell harvester (Brandel, Gaithersburg, MD). Filters were washed three times with 3 mL of 50 mM ice-cold Tris-HCl buffer (pH 7.5). Filters for A1 and A2AAR binding were placed in scintillation vials containing 5 mL of Hydrofluor scintillation buffer and counted using a Perkin Elmer Liquid Scintillation Analyzer (Tri-Carb 2810TR). Filters for A3AR binding were counted using a Packard Cobra II γ-counter.
(§5) Data analysis: Binding and functional parameters were calculated using Prism 5.0 software (GraphPAD, San Diego, CA, USA). IC50 values obtained from binding inhibition curves were converted to Ki values using the Cheng-Prusoff equation [40]. Data were expressed as mean ± standard error or percentage inhibition at 10 µM.

human A3AR = target: T2, human A3AR (Homo sapiens, UniProt P0DMS8); assay: Radioligand binding ([125I]I-AB-MECA), membranes of CHO cells expressing hA3AR; conditions: for Ki / inhibition at 10 µM: hA3AR, CHO cell membranes; for Ki: [125I]I-AB-MECA 0.2 nM, mean ± standard error, read-out: A3 Ki; for inhibition at 10 µM: percent inhibition at 10 µM compound, [125I]I-AB-MECA, read-out: A3 % Inhibition
T2 construct: expressed in transfected cells
T2 sequence (P0DMS8 1-318): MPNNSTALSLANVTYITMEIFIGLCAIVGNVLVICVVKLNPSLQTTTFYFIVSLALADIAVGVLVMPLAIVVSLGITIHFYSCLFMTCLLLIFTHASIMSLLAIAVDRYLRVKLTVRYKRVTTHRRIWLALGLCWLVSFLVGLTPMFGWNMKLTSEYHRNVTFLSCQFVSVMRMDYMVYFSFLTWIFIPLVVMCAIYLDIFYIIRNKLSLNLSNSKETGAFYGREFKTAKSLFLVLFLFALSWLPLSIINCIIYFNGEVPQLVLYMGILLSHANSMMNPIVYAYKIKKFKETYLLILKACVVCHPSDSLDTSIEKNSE
Description: as §1, §2, §3, §4, §5

human A2AAR = target: T3, human A2AAR (Homo sapiens, UniProt P29274); assay: Radioligand binding ([3H]CGS21680), membranes of HEK293 cells expressing hA2AAR; conditions: HEK293 cell membranes; for inhibition at 10 µM: percent inhibition at 10 µM compound, [3H]CGS21680, read-out: A2A % Inhibition; for Ki: [3H]CGS21680 10 nM, mean ± standard error, read-out: A2A Ki
T3 construct: expressed in transfected cells
Description: as §1, §2, §3, §4, §5

bovine A1AR = target: bovine A1AR; design: method as in PMID 21080692; conditions: reference compound; cited from earlier work

T3 sequence (P29274 whole entry): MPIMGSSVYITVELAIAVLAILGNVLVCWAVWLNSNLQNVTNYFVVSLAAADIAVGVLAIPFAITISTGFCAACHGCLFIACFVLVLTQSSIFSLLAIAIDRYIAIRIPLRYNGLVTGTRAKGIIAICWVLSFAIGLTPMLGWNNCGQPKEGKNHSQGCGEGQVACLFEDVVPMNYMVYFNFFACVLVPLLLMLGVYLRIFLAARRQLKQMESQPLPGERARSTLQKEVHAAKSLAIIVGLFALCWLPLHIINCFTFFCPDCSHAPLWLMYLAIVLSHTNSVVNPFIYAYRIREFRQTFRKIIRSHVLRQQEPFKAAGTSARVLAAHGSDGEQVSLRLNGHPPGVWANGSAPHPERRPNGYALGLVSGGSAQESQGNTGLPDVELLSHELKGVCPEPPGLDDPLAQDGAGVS

SMILES	inhibition at 10 µM (human A1AR) [%]	Ki (human A3AR) [µM]	Ki (human A1AR) [µM]	Ki (human A2AAR) [µM]	further results
CN(C(=O)Cc1csc(NC(=O)C2CC2)n1)c1ccccc1 [Compound 16]	13 ± 2	13.4			inhibition at 10 µM (human A2AAR): 36 ± 0.2%
O=C(Nc1nc(-c2cccc(F)c2)cs1)c1ccc2[nH]nnc2c1 [Compound 23]		0.07 ± 0.02	1.22 ± 0.34	3.78 ± 0.83	
COc1cccc(/C=C/C(=O)Nc2nc(-c3ccccn3)cs2)c1 [Compound 13]	10 ± 10	3.48 ± 1.1		10.9	
O=C(Nc1nc(-c2ccccn2)cs1)c1cc2c(F)cccc2[nH]1 [Compound 10]	9 ± 9	9.06 ± 1.1			inhibition at 10 µM (human A2AAR): 37 ± 1%
CCN(Cc1nc2ccccc2c(=O)[nH]1)C(=O)c1cc(C2CC2)[nH]n1 [Compound 22]	36			9.3 ± 0.7	inhibition at 10 µM (human A3AR): 42 ± 6%
Cc1cccc2c(=O)[nH]c(CSc3n[nH]c(C(C)C)n3)nc12 [Compound 14]	19 ± 10			6.54 ± 1.09	inhibition at 10 µM (human A3AR): 49 ± 1%
C=CCOc1ccccc1/C=N/Nc1nc2ccccc2c(=O)n1C [Compound 25]		0.55 ± 0.07	2.93 ± 0.48	1.45 ± 0.17	
OC1CCC(Nc2nc(-c3ccccc3)nc3c2nnn3Cc2ccccc2)CC1 (stereo not drawn) [Compound 5, 4-[(3-benzyl-5-phenyl-triazolo[4,5-e]pyrimidin-7-yl)amino]cyclohexan-1-ol]					Ki (bovine A1AR): 0.003 µM
N#Cc1cccc(C(=O)Nc2nc(-c3ccccn3)cs2)c1 [Compound 20]	45	1.52 ± 0.36		3.56 ± 0.51	
Cn1nnnc1SCC(=O)Nc1nc(-c2cccs2)cs1 [Compound 18]		1.76 ± 0.21	3.43 ± 1.03	2.13 ± 0.72	
COc1ccc(OCC(=O)Nc2nc(-c3ccccn3)cs2)cc1 [Compound 12]	28 ± 9	2.78 ± 0.92		3.65 ± 0.87	
Nc1nc(COC(=O)c2cc3cc(F)ccc3[nH]2)nc2ccccc12 [Compound 15]	20 ± 4	9.33 ± 1.8			inhibition at 10 µM (human A2AAR): 5 ± 3%
CCCn1nc(C(=O)Nc2nc(-c3ccccn3)cs2)ccc1=O [Compound 11]	13 ± 9	13.7			inhibition at 10 µM (human A2AAR): 35 ± 3%
Cc1ccccc1Nc1nc(N)nc(COc2ccccc2C#N)n1 [Compound 9]	2 ± 2	4.86 ± 0.33		2.36 ± 0.26	
CCS(=O)(=O)Nc1cccc(C(=O)Nc2nc3ccccc3[nH]2)c1 [Compound 21]		0.205 ± 0.03	0.98 ± 0.09	1.34 ± 0.31	
CC(NC(=O)c1ccco1)C(=O)Nc1nc(-c2ccccn2)cs1 (stereo not drawn) [Compound 7]	17 ± 9			3.31 ± 0.27	inhibition at 10 µM (human A3AR): 43 ± 3%
Cc1cc(C)c2c(=O)[nH]c(SCC(=O)Nc3cc(C)on3)nc2n1 [Compound 26]		3.85 ± 0.59	3.94 ± 0.39	1.37 ± 0.47	
Cn1c(=O)c2[nH]c(NCC3CCCO3)nc2n(-c2ccccc2)c1=O (stereo not drawn) [Compound 19]			3.34 ± 0.56	6.66 ± 0.86	inhibition at 10 µM (human A3AR): 23 ± 3%
Nc1nc(Cn2nnc(-c3ccccc3)n2)nc(Nc2ccccc2)n1 [Compound 24]	33 ± 9	0.04 ± 0.006		6.14 ± 1.69	Selectivity for A3AR (human A3AR; judged from Ki at the three hAR subtypes): slightly selective
CCOc1cccc2cc(C(=O)NCc3ccccn3)c(=N)oc12 [Compound 17]			0.4 ± 0.06	0.74 ± 0.39	inhibition at 10 µM (human A3AR): 48 ± 7%
O=C(Nc1nc(-c2ccccn2)cs1)c1cccc(-n2cnnn2)c1 [Compound 8]			3.46 ± 0.42		Selectivity for A1AR over A2AAR and A3AR (human A1AR; by the criteria used in this screen (>50% inhibition at 10 µM)): selective for the A1AR; inhibition at 10 µM (human A3AR): 35 ± 4%; inhibition at 10 µM (human A2AAR): 11 ± 6%
